These results are taken from PMC3683333, “^11C-LY2428703, a positron emission tomographic radioligand for the metabotropic glutamate receptor 1, is unsuitable for imaging in monkey and human brains” (EJNMMI Research, 2013).

Series [1] concerns mGluR1. Details: method as in PMID 23135321. The note with it: PET; cited from earlier work.
Series [2] deals with ABCB1 (permeability glycoprotein (P-gp)) and ABCG2 (breast cancer resistance protein (BCRP)). Set-up: method as in PMID 23135321. The note with it: genetic knockout mice for ABCB1 and ABCG2; cited from earlier work.
A further series concerns the target human mGluR1s. Details: method as in PMID 23135321. The following applies: cited from earlier work.
A further series deals with other human mGluRs. Details: method as in PMID 23135321. The following applies: cited from earlier work.
Series [3] in a line: Brain exposure comparison of five radioligands. In kind it is in vivo, human. The protocol: Another complicating factor is low delivery to brain (i.e., low drug exposure), which may have cause low brain uptake. We compared five different radioligands from previous studies with regard to exposure to brain (Table 3) and measured the area under the curve of plasma concentration vs. time from 0 to 20 min. […] The effective exposure was thus named because only the free concentration of drug can cross the blood–brain barrier. ^11C-LY2428703 had the highest exposure value among the tracers tested. This high exposure was due to the slow wash-out of the tracer from the vascular compartment and to negligible metabolism in plasma, that is, parent radioligand represented 99% of plasma radioactivity even at the end of the 2-h scanning session.

On the set-up of series [4]: method as in earlier work. The note with it: cited from earlier work; for Exposure SUV (0 to 20): AUC of plasma concentration vs. time, 0 to 20 min, data of previous studies; for fp: human plasma; for Brain peak SUV: human.
In series [5] the target is mGluR1. Set-up: method as in PMID 23135321. The note with it: rats; read-out: in vitro affinity; cited from earlier work.
For series [6] the following is noted: cited from earlier work.
The mark [7] stands for this setting: fp × AUC0 to 20, comparators from data of refs 22, 19, 23, 24.

Where two headings read alike, the source gives them in different places.

With `COc1ccc(-c2nsc(NC(=O)[C@@H]3C[C@H]3C)c2C)cc1` [LY2428703], the “signal in rat cerebellum” value in the series on mGluR1 [1] is “large specific and displaceable signal”. Also, the “substrate for efflux transporters at the blood–brain barrier” value in series [2] is given as “not a substrate”. The Ki was 1.4 ± 0.4 nM at human mGluR1s (females, read-out: Ki) and 2.7 ± 0.5 nM on human mGluR1s (males, read-out: Ki). For the same compound, the “affinity for other human mGluRs” value in the series on other human mGluRs is “no significant affinity”.
`[11CH3]Oc1ccc([C@@H]2CNC(=O)C2)cc1OC1CCCC1` [^11C-( R )-rolipram]: in series [3] (in vivo), the “Effective exposure (E × fp)” value came to 8.0. Further, in series [4], the “Exposure SUV (0 to 20)” value is recorded as 124.9 SUV, the fp is recorded as 6.4% and the “Brain peak SUV” value is recorded as 2 to 2.5 SUV.
Take `COc1ccc(-c2nsc(NC(=O)[C@@H]3C[C@H]3C)c2C)cc1` [^11C-LY2428703]: the Ki at mGluR1 [5] was 0.6 nM; on human mGluR1s (humans, read-out: in vitro affinity), approximately 2 nM.
Take `[11CH3]NC(=O)[C@@H](Cc1ccccc1F)CN1CCC2(CC1)OCCc1cc(F)sc12` [^11C-NOP1A]: in series [3] (setting [7]), the “Effective exposure (E × fp)” value is 3.7. In series [4], the “Exposure SUV (0 to 20)” value was 36.7 SUV, the fp is recorded as 10.1% and the “Brain peak SUV” value is on record as 5 to 7 SUV.
As usually defined, the LogD is lipophilicity at a set pH, counting ionised and neutral species. On to `CC(C)Nc1cc(-c2csc(N(C)C(=O)c3ccc([18F])cc3)n2)ncn1` [^18F-FITM, reference compound], for which the LogD in series [6] was 1.5.
In the case of `C[C@@H](N[C@@H]1C[C@H](c2cccc(OC[18F])c2)N(c2ccc(C(F)(F)F)cc2)C1=O)c1ccccc1` [^18F-FMPEP], in series [3] (setting [7]), the “Effective exposure (E × fp)” value worked out at 0.30. Besides, in series [4], the “Exposure SUV (0 to 20)” value was 47.8 SUV, the fp is on record as 0.63% and the “Brain peak SUV” value was 3 to 4 SUV.
As to `N#Cc1cc(F)cc(C#Cc2csc(C[18F])n2)c1` [^18F-SP203], in series [3] (in vivo), the “Effective exposure (E × fp)” value was found to be 1.9. Moreover, in series [4], the “Exposure SUV (0 to 20)” value is 37.0 SUV, the fp is listed as 5.2% and the “Brain peak SUV” value is listed as approximately 6 SUV.
